Target: LBAA glyphosate oxidoreductase variant v.247 (v1v2v3: GLY84, ARG153, ARG334), SEQ ID NO:18 (Ochrobactrum sp. G-1, UniProt D2KI28, H334R/K153R/S2A/S84G)
Test: Kinetic analysis of glyphosate oxidoreductase variant v.247
Format: biochemical, bacterial isolate LBAA (Pseudomonas strain LBAA)
Experimental: The mutagenesis procedure used was that of Mn++-poisoned PCR and the template was a linearized glyphosate oxidoreductase gene plasmid containing the synthetic glyphosate oxidoreductase gene (SEQ ID NO:8). The oligonucleotide primers used were homologous to regions in the vector and flanking the glyphosate oxidoreductase gene. The PCR conditions employed were as follows: 1 minute at 94° C., 2 minutes at 55° C., and 3 minutes at 72° C. and with 35 cycles. A 5:1 ratio of dCTP+dGTP+TTP to dATP was used. The reactions contained MnCl2 at 125, 250, 375, or 500 μM. After the reaction, the amplified product was recloned into a vector containing a weak E. coli promoter. This vector was a pBR327 derivative containing the araBAD promoter and suitable cloning sites. One hundred colonies from this cloning step were then screened in E. coli GB993 for improved glyphosate tolerance and utilization phenotypes in media composed of MOPS minimal medium with glyphosate and Pi or with glyphosate alone, respectively. Growth rates were determined by measuring A550 over a 96 hour period. […] The glyphosate oxidoreductase gene was recloned into the expression vector portion and this phenotype verified. All kinetic analysis was performed on crude E. coli lysates. Putative glyphosate oxidoreductase variant proteins were overexpressed after subcloning the NcoI/HindIII variant glyphosate oxidoreductase gene into PrecA-gene10L expression vector. For overexpression in PrecA-gene10L constructs, GB993 cells containing the vector were induced at a Klett=110-120 in M9 minimal medium with 50 μg/ml nalidixic acid and allowed to grow for 2.5 hours at 37° C. with vigorous shaking. Cells were harvested by centrifugation at 4000 g, 5 minutes at 4° C., and resuspend in 100 mM Tris-HCl, pH 7.1, 1 mM EDTA, 35 mM KCl, 20% glycerol, and 1 mM benzamidine at 3 ml/g cell pellet. Lysates were prepared by breaking the cells in a French press, twice, at 1000 psi. Insoluble debris was removed by centrifugation at 12000 g, 15 minutes at 4° C., and the supernatant was de-salted by passing over a PD-10 column (Sephadex G-25, Pharmacia). The void volume fraction was used as the source of enzyme for kinetic analysis. Protein concentrations were determined using the Bio-Rad protein dye-binding assay. Time and enzyme concentration courses were performed to determine linear ranges. […] Ten minutes was determined to be the optimal time for the enzyme assay using 10 μg lysate. After 10 minutes at 30° C. with shaking, 0.25 ml dinitrophenylhydrazine (DNPH) reagent (0.5 mg/ml in 0.5M HCl) was added and the reaction was allowed to proceed for an additional 5 minutes at 30° C. with shaking. A 1.5M NaOH solution (400 μl) was then added to the assay mix, and the reaction was continued for 5 minutes at 30° C. with shaking. Enzyme activity was determined from the amount of glyoxylate-DNPH adduct formed by measuring A520 against a standard of glyoxylate. Enzyme assays are performed in duplicate on at least two different single colony isolates of a putative glyphosate oxidoreductase variant. To determine Km and Vmax, enzyme assays were performed over a (0.2-2.0)×Km range of glyphosate concentrations. The Km and Vmax were determined from Lineweaver Burk, Eadie-Hofstee and hyperbolic kinetic plots. Vmax was estimated after determining the amount of immunoreactive glyphosate oxidoreductase protein in lysates by immunoblot analysis as described below. Immunoblot analysis was performed following SDS-PAGE and transfer of protein from the gel to nitrocellulose at 500 mA in a Hoeffer transfer apparatus in 25 mM Tris-HCl, 192 mM glycine containing 0.1% SDS and 25% methanol for 1-2 hours. After transfer, the nitrocellulose was incubated with 50 mM Tris-HCl, pH7.5, 0.9% NaCl, 0.01% Tween 20, 0.02% NaN3 containing 2% bovine serum albumin at room temperature with shaking for at least 30 minutes. […]

SMILES: O=C(O)CNCP(=O)(O)O [glyphosate, N-phosphonomethyl-glycine]
- VmKm (domain switch experiment, v.247 (v1v2v3), substrate glyphosate): 0.34
- VmKm (Glyp) (v.247): .23
- lower Km for glyphosate than the wild type glyphosate oxidoreductase (v.247 versus wild type): 10 fold
- app Vm (Glyp) (v.247, pH 7.4, 30° C.): 0.6 U/mg

Reference: patent publication USRE38825E1, “Glyphosate tolerant plants” (Monsanto Technology LLC, priority 1990, dated 2005)
